Values after ≈ are worked out from the molar mass of the structure shown. Active and inactive are the calls of the source. The rule behind the calls is not given here.
Columns and labels:
Type in all cases: functional
Pseudomonas aeruginosa [1] = assay: Antimicrobial activity against mexAB-oprM protein and mexCD-oprJ deficient Pseudomonas aeruginosa PAO238 by broth dilution method
Pseudomonas aeruginosa [2] = assay: Antimicrobial activity against mexAB-oprM protein and mexCD-oprJ deficient Pseudomonas aeruginosa PAO253 overexpressing MexEF-OprN gene by broth dilution method
Pseudomonas aeruginosa [3] = assay: Antimicrobial activity against mexAB-oprM protein and mexZ deficient Pseudomonas aeruginosa PAO267 by broth dilution method
Pseudomonas aeruginosa [4] = assay: Antimicrobial activity against mexAB-oprM, mexCD-oprJ, mexEF-oprN, mexJK, mexXY, opmH and pscC gene deficient Pseudomonas aeruginosa PAO750 by broth dilution method
Acinetobacter baumannii = assay: Antimicrobial activity against Acinetobacter baumannii HPA74510 assessed as number of passages required for MIC to rise above 4 times original MIC
Acinetobacter junii = assay: Antimicrobial activity against Acinetobacter junii 15218 assessed as number of passages required for MIC to rise above 4 times original MIC
Klebsiella pneumoniae = assay: Antimicrobial activity against Klebsiella pneumoniae 1338665 assessed as number of passages required for MIC to rise above 4 times original MIC
Pseudomonas aeruginosa [5] = assay: Antimicrobial activity against Pseudomonas aeruginosa BA assessed as number of passages required for MIC to rise above 4 times original MIC
Pseudomonas aeruginosa [6] = assay: Antimicrobial activity against Pseudomonas aeruginosa 527 assessed as number of passages required for MIC to rise above 4 times original MIC
[7] = tested on: Stenotrophomonas maltophilia; assay: Antimicrobial activity against Stenotrophomonas maltophilia 1AC736 assessed as number of passages required for MIC to rise above 4 times original MIC

O=C(O)c1cn(C2CC2)c2cc(N3CCNCC3)c(F)cc2c1=O [CIPROFLOXACIN]
MIC (Pseudomonas aeruginosa [1]): ≤ 0.06 µg/mL
MIC (Pseudomonas aeruginosa [2]): 1 µg/mL (≈ 3.02 µM)
MIC (Pseudomonas aeruginosa [3]): ≤ 0.06 µg/mL
MIC (Pseudomonas aeruginosa [4]): ≤ 0.06 µg/mL
Activity (Acinetobacter baumannii): inactive
Activity (Acinetobacter junii): 12 passages
Activity (Klebsiella pneumoniae): inactive
Activity (Pseudomonas aeruginosa [5]): 2 passages
Activity (Pseudomonas aeruginosa [6]): 3 passages
Activity [7]: inactive
